Activity calls are given as the source filed them. No cut-off for these calls is given here.
Tests used:
RAW264.7 [1] = test: Inhibition of RANKL-induced osteoclast differentiation in mouse RAW264.7 cells harboring ERbeta siRNA assessed as decrease in c-Fos mRNA level at 20 uM after 24 hrs by qRT-PCR method; type: functional, cell-based
Mus musculus [2] = test: Anti-osteoporotic activity in Balb/c mouse assessed as inhibition of OVX-induced serum CTx level at 25 to 100 mg/kg, ip administered for 4 weeks daily by ELISA; type: functional, organism-based
Mus musculus [3] = test: Anti-osteoporotic activity in Balb/c mouse assessed as inhibition of OVX-induced c-Fos mRNA expression level in bone marrow at 25 to 100 mg/kg, ip administered for 4 weeks daily by qRT-PCR method; type: functional, organism-based
RAW264.7 [4] = test: Inhibition of RANKL-induced osteoclast differentiation in mouse RAW264.7 cells harboring ERalpha siRNA assessed as decrease in size of TRAP-positive multinucleated cells at 20 uM after 5 days by microscopy; type: functional, cell-based
Mus musculus [5] = test: Anti-osteoporotic activity in Balb/c mouse assessed as inhibition of OVX-induced cathepsin K mRNA expression level in bone marrow at 25 to 100 mg/kg, ip administered for 4 weeks daily by qRT-PCR method; type: functional, organism-based
RAW264.7 [6] = test: Inhibition of RANKL-induced osteoclast differentiation in mouse RAW264.7 cells harboring AMPKalpha1 siRNA assessed as decrease in TRAP activity at 10 to 40 uM after 5 days by microscopy; type: functional, cell-based
RAW264.7 [7] = test: Cytotoxicity against mouse RANKL-treated RAW264.7 cells assessed as reduction in cell viability at 10 to 40 uM after 72 hrs by MTT assay; type: cell-based; details: raw264.7, 72 h
[8] = biological target: T1, Estrogen receptor (Homo sapiens) (UniProt P03372); test: Agonist activity at estrogen receptor (unknown origin) expressed in mouse RAW264.7 cells after 6 hrs by luciferase reporter gene assay; type: cell-based
T1 sequence (whole entry): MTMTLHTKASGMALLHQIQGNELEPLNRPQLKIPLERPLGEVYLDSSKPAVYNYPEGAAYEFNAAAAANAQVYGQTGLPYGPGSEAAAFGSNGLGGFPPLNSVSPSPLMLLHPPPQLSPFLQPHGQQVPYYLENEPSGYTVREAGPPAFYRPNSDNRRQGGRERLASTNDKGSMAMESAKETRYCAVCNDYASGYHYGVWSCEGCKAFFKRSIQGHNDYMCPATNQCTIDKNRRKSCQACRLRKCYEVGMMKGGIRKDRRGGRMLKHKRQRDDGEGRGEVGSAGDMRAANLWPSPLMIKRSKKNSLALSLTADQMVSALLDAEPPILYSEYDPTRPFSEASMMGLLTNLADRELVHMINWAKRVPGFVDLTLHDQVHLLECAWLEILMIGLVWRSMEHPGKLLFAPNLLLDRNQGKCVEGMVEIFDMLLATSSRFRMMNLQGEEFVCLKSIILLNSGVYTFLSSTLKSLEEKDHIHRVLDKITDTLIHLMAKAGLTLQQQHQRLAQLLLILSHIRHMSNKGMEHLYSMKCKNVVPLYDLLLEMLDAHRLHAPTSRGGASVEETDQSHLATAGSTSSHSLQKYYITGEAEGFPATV

RAW264.7 [9] = test: Inhibition of NF-kappaB/p38 MAPK signaling pathway in mouse RAW264.7 cells assessed as reduction in RANKL-induced DC-STAMP mRNA level after 24 hrs by qRT-PCR method; type: cell-based
Mus musculus [10] = test: Anti-osteoporotic activity in Balb/c mouse assessed as inhibition of OVX-induced NFATc1 mRNA expression level in bone marrow at 25 to 100 mg/kg, ip administered for 4 weeks daily by qRT-PCR method; type: functional, organism-based
RAW264.7 [11] = test: Inhibition of RANKL-induced osteoclast differentiation in mouse RAW264.7 cells assessed as decrease in TRAP activity at 20 uM after 5 days in presence of ERbeta antagonist PHTPP by microscopy; type: functional, cell-based
[12] = biological target: T2, Estrogen receptor (Mus musculus) (UniProt P19785); test: Induction of estrogen receptor-mediated AMPKalpha1 activation in mouse RAW264.7 cells at 20 uM in presence of PKA inhibitor H89; type: cell-based
T2 sequence (whole entry): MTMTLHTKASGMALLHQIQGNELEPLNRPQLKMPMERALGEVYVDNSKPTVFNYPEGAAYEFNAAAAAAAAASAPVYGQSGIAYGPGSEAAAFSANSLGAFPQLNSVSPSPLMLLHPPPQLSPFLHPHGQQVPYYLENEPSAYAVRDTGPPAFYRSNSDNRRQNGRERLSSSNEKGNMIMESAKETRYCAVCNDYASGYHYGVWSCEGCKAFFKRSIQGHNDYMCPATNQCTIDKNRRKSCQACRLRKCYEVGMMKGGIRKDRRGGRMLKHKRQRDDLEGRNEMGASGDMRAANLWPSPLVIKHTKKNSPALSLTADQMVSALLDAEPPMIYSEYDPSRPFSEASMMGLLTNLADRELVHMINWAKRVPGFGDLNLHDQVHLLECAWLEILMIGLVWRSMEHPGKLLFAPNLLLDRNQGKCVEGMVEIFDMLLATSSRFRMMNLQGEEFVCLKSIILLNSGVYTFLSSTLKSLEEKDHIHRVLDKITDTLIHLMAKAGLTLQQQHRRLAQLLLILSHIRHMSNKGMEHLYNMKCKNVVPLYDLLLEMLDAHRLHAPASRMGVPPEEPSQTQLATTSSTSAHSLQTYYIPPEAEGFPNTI

RAW264.7 [13] = test: Inhibition of RANKL-induced osteoclast differentiation in mouse RAW264.7 cells assessed as decrease in TRAP mRNA level at 20 uM after 24 hrs in presence of ERbeta antagonist PHTPP by qRT-PCR method; type: functional, cell-based
RAW264.7 [14] = test: Inhibition of RANKL-induced osteoclast differentiation in mouse RAW264.7 cells assessed as decrease in TRAP activity at 10 to 40 uM after 5 days by microscopy; type: functional, cell-based
[15] = biological target: MAP kinase p38 (Mus musculus) (UniProt P47811+O08911+Q9WUI1+Q9Z1B7); test: Inhibition of p38 MAPK signaling pathway in mouse RAW264.7 cells assessed as reduction in RANKL-induced p38 phosphorylation at 10 to 40 uM after 30 mins by Western blot method; type: cell-based
Mus musculus [16] = test: Anti-osteoporotic activity in ip dosed OVX-induced bone loss in femur of Balb/c mouse administered for 4 weeks daily by microcomputed tomography; type: functional, organism-based
RAW264.7 [17] = test: Inhibition of RANKL-induced osteoclast differentiation in mouse RAW264.7 cells assessed as decrease in size of TRAP-positive multinucleated cells at 20 uM after 5 days in presence of ERbeta antagonist PHTPP by microscopy; type: functional, cell-based
RAW264.7 [18] = test: Inhibition of NF-kappaB/p38 MAPK signaling pathway in mouse RAW264.7 cells assessed as reduction in RANKL-induced NFATc1 protein expression level after 24 hrs by Western blot method; type: cell-based
RAW264.7 [19] = test: Inhibition of RANKL-induced osteoclast differentiation in mouse RAW264.7 cells assessed as decrease in c-Fos mRNA level at 20 uM after 24 hrs in presence of ERbeta antagonist PHTPP by qRT-PCR method; type: functional, cell-based

Activity [8]: Active
Activity [12]: Active
inhibition [15]: Active
Structure (SMILES): COc1cc(C2Oc3c(OC)cc(/C=C/CO)cc3C2CO)ccc1O (centres undefined)
inhibition (RAW264.7 [1]): Active
inhibition (Mus musculus [2]): Active
inhibition (Mus musculus [3]): Active
inhibition (RAW264.7 [4]): inactive
inhibition (Mus musculus [5]): Active
inhibition (RAW264.7 [6]): inactive
Activity (RAW264.7 [7]): Non-Toxic
inhibition (RAW264.7 [9]): Dose-dependent effect
inhibition (Mus musculus [10]): Active
inhibition (RAW264.7 [11]): Active
inhibition (RAW264.7 [13]): Active
inhibition (RAW264.7 [14]): Active
Activity (Mus musculus [16]): Dose-dependent effect
inhibition (RAW264.7 [17]): Active
inhibition (RAW264.7 [18]): Dose-dependent effect
inhibition (RAW264.7 [19]): Active

Source: ChEMBL document CHEMBL4145608, “Dehydrodiconiferyl Alcohol Inhibits Osteoclast Differentiation and Ovariectomy-Induced Bone Loss through Acting as an Estrogen Receptor Agonist” (J Nat Prod, 2018)
